Results: patent US8263139B2 (Metaproteonics, LLC, priority 2005, dated 2012)
Marks after values point to notes of the source that are not given here.

What was measured:
3T3-L1 adipocytes [1] = test: Lipogenesis in 3T3-L1 adipocytes (Oil Red O / BODIPY); format: cell-based, murine
Method: Prior to experiments, cells were cultured in DMEM containing 10% FBS-HI added 50 units penicillin/ml and 50 μg streptomycin/ml, and maintained in log phase prior to experimental setup. Cells were grown in a 5% CO2 humidified incubator at 37° C. Components of the pre-confluent medium included (1) 10% FBS/DMEM containing 4.5 g glucose/L; (2) 50 U/ml penicillin; and (3) 50 μg/ml streptomycin. Growth medium was made by adding 50 ml of heat inactivated FBS and 5 ml of penicillin/streptomycin to 500 ml DMEM. This medium was stored at 4° C. Before use, the medium was warmed to 37° C. in a water bath.
3T3-T1 cells were seeded at an initial density of 6×10^4 cells/cm^2 in 24-well plates. For two days, the cells were allowed grow to reach confluence. Following confluence, the cells were forced to differentiate into adipocytes by the addition of differentiation medium; this medium consisted of (1) 10% FBS/DMEM (high glucose); (2) 0.5 mM methylisobutylxanthine; (3) 0.5 μM dexamethasone and (4) 10 μg/ml insulin (MDI medium). After three days, the medium was changed to post-differentiation medium consisting of 10 μg/ml insulin in 10% FBS/DMEM.
Whenever fresh media were added, fresh test material was also added.
Monolayer cells were washed with PBS (phosphate buffered saline, Mediatech) and fixed with 10% formaldehyde for ten minutes. Fixed cells were stained with an Oil Red O working solution of three parts 0.6% Oil Red O/isopropanol stock solution and two parts water for one hour and the excess stain was washed once with water. The resulting stained oil droplets were extracted from the cells with isopropanol and quantified by spectrophotometric analysis at 540 nm (MEL312e BIO-KINETICS READER, Bio-Tek Instruments, Winooski, Vt.).
Briefly, media were removed and cells were washed once with non-sterile PBS. […] After 15 min on an orbital shaker (DS-500, VWR Scientific Products, South Plainfield, N.J.) at ambient temperature, the cells were washed with 100 μl PBS followed by the addition of 100 μl PBS for reading for spectrofluorometric determination of BODIPY incorporation into the cells. […]

3T3-L1 adipocytes [2] = test: Adiponectin secretion from TNFα-treated 3T3-L1 adipocytes; format: cell-based, murine; conditions: for Concentration eliciting maximum adiponectin secretion: of the doses tested
Method: 3T3-L1 cells were seeded at an initial density of 1×10^4 cells/cm^2 in 96-well plates. For two days, the cells were allowed grow to reach confluence. Following confluence, the cells were forced to differentiate into adipocytes by the addition of differentiation medium; this medium consisted of (1) 10% FBS/DMEM (high glucose); (2) 0.5 mM methylisobutylxanthine; (3) 0.5 μM dexamethasone and (4) 10 μg/ml insulin (MDI medium). From Day 3 through Day 5, the medium was changed to post-differentiation medium consisting of 10% FBS in DMEM. […] On Day 6, the supernatant medium was sampled for adiponectin determination.
Statistical Calculations and Interpretation—All assays were preformed in duplicate. […] Differences among the doses and test agents were determined using the Student's t-test without correction for multiple comparisons; the nominal five percent probability of a type I error was selected.

3T3-L1 adipocytes [3] = test: IL-6 secretion in LPS/3T3-L1 adipocytes; format: cell-based, murine; conditions: at the concentration of maximum inhibition, with 100 ng LPS/ml
3T3-L1 adipocytes [4] = test: Adiponectin secretion in LPS/3T3-L1 adipocytes; format: cell-based, murine; conditions: at the concentration of maximum stimulation; NS = not significantly different from the LPS control
[5] = Collagen induced rheumatoid arthritis murine model, arthritic index; format: in vivo, mouse; conditions: 10 mg/kg
Method: The mice were injected intradermally on day 0 with a mixture containing 100 μg of type II collagen and 100 μg of Mycobacterium tuberculosis in squalene. A booster injection was repeated on day 21. Mice were examined on days 22-27 for arthritic signs with nonresponding mice removed from the study.
Arthritic symptomology was assessed (scored 0-4) for each paw using a arthritic index as described below. Under this arthritic index 0=no visible signs; 1=edema and/or erythema: single digit; 2=edema and or erythema: two joints; 3=edema and or erythema: more than two joints; and 4=severe arthritis of the entire paw and digits associated with ankylosis and deformity.

## CC(C)CCC1=C(O)C(C(=O)C(C)C)=C(O)C(CCC(C)C)(CCC(C)C)C1=O [hexahydrocolupulone]
3T3-L1 adipocytes [1]
  adipogenic / lipogenic response compared with controls: failed to elicit a lipogenic response

## CCc1ccc(CCOc2ccc(CC3SC(=O)NC3=O)cc2)nc1 (centres unmarked) [pioglitazone]
3T3-L1 adipocytes [2]; 10 ng TNFα/ml
  maximal adiponectin secretion, times the TNFα treatment: 1.47
3T3-L1 adipocytes [2]; 10 ng TNFα/ml, Acacia catechu #5669 fractions
  Concentration eliciting maximum adiponectin secretion over four doses: 1.25 µg/mL

## COc1cc(O)c(CC=C(C)C)c(O)c1C(=O)/C=C/c1ccc(O)cc1 [xanthohumol]
3T3-L1 adipocytes [1]
  adipogenic / lipogenic response compared with controls: comparable to indomethacin and troglitazone

## Cc1c(C)c2c(c(C)c1O)CCC(C)(COc1ccc(CC3SC(=O)NC3=O)cc1)O2 (centres unmarked) [troglitazone]
3T3-L1 adipocytes [2]; 10 ng TNFα/ml
  Concentration eliciting maximum adiponectin secretion: 0.625 µg/mL

## COc1ccc2c(c1)c(CC(=O)O)c(C)n2C(=O)c1ccc(Cl)cc1 [indomethacin]
3T3-L1 adipocytes [2]; 2 ng TNFα/ml
  Concentration eliciting maximum adiponectin secretion: 1.25 µg/mL
3T3-L1 adipocytes [2]; 10 ng TNFα/ml
  Concentration eliciting maximum adiponectin secretion: 5.0 µg/mL
3T3-L1 adipocytes [3]
  % Inhibition (maximum inhibition of IL-6 secretion): 53* %
3T3-L1 adipocytes [4]
  % Stimulation (maximum stimulation of adiponectin secretion): 9%

## Beta acids
3T3-L1 adipocytes [1]
  adipogenic / lipogenic response compared with controls: comparable to indomethacin and troglitazone

## C[C@]12C=CC(=O)C=C1CC[C@@H]1[C@@H]2[C@@H](O)C[C@@]2(C)[C@H]1CC[C@]2(O)C(=O)CO [prednisolone]
[5]
  arthritic index: Significant reductions
